Key:
Assay type in all cases: functional
Mus musculus [1] = organism: Mus musculus; assay: Tested for its ability to eliminate the infective trypomastigote form of Trypanosoma cruzi, Y strain present in blood of infected mice at the dose of 0.21 mM
Mus musculus [2] = organism: Mus musculus; assay: Tested for its ability to eliminate the infective trypomastigote form of Trypanosoma cruzi, Y strain present in blood of infected mice at the dose of 0.22 mM
Mus musculus [3] = organism: Mus musculus; assay: Tested for its ability to eliminate the infective trypomastigote form of Trypanosoma cruzi, Y strain present in blood of infected mice at the dose of 0.20 mM
Mus musculus [4] = organism: Mus musculus; assay: Tested for its ability to eliminate the infective trypomastigote form of Trypanosoma cruzi, Y strain present in blood of infected mice at the dose of 0.18 mM
Mus musculus [5] = organism: Mus musculus; assay: Tested for its ability to eliminate the infective trypomastigote form of Trypanosoma cruzi, Y strain present in blood of infected mice at the dose of 0.50 mM
Mus musculus [6] = organism: Mus musculus; assay: Tested for its ability to eliminate the infective trypomastigote form of Trypanosoma cruzi, Y strain present in blood of infected mice at the dose of 0.19 mM
Mus musculus [7] = organism: Mus musculus; assay: Tested for its ability to eliminate the infective trypomastigote form of Trypanosoma cruzi, Y strain present in blood of infected mice at the dose of 0.24 mM
Mus musculus [8] = organism: Mus musculus; assay: Tested for its ability to eliminate the infective trypomastigote form of Trypanosoma cruzi, Y strain present in blood of infected mice at the dose of 0.25 mM
Mus musculus [9] = organism: Mus musculus; assay: Tested for its ability to eliminate the infective trypomastigote form of Trypanosoma cruzi, Y strain present in blood of infected mice at the dose of 0.12 mM
Mus musculus [10] = organism: Mus musculus; assay: Tested for its ability to eliminate the infective trypomastigote form of Trypanosoma cruzi, Y strain present in blood of infected mice at the dose of 0.29 mM
Mus musculus [11] = organism: Mus musculus; assay: Tested for its ability to eliminate the infective trypomastigote form of Trypanosoma cruzi, Y strain present in blood of infected mice at the dose of 0.23 mM

Q: How did the Lysis (Mus musculus [1]) turn out when CC(C)c1cc2c(o1)C(=O)c1ccccc1C2=O was run?
A: The Lysis was 88%.

Q: CC/C=C/C1=C(O)C(=O)c2ccccc2C1=O was tested. Which Lysis (Mus musculus [2]) did it give?
A: The Lysis was 68%.

Q: For COc1cccc2c1C(=O)c1ccsc1C2=O, which Lysis (Mus musculus [3]) is on record?
A: Its Lysis is 0%.

Q: For COc1ccc2c(c1OC)C(=O)c1sccc1C2=O, which Lysis (Mus musculus [4]) is on record?
A: The Lysis was 19%.

Q: With O=C1C(=O)c2ccoc2-c2ccccc21 as the compound, how does the Lysis (Mus musculus [5]) read?
A: Its Lysis is 100%.

Q: For COc1cccc2c1C(=O)c1sccc1C2=O, which Lysis (Mus musculus [3]) is on record?
A: The Lysis was 26%.

Q: How did the Lysis (Mus musculus [2]) turn out when COc1cccc2c1C(=O)c1ccoc1C2=O was run?
A: Its Lysis is 52%.

Q: How did the Lysis (Mus musculus [6]) turn out when O=C1c2ccccc2C(=O)c2sc([N+](=O)[O-])cc21 was run?
A: Its Lysis is 54%.

Q: With Cc1cc2c(o1)C(=O)c1ccccc1C2=O as the compound, how does the Lysis (Mus musculus [7]) read?
A: The Lysis was 18%.

Q: For CCc1cc2c(o1)C(=O)c1ccccc1C2=O, which Lysis (Mus musculus [2]) is on record?
A: The Lysis was 24%.

Q: Which Lysis (Mus musculus [8]) does the source give for O=C1c2ccccc2C(=O)c2occc21 here?
A: Its Lysis is 33%.

Q: With CC(C)/C=C/C1=C(O)C(=O)c2ccccc2C1=O as the compound, how does the Lysis (Mus musculus [1]) read?
A: The Lysis was 81%.

Q: With CCc1cc2c(o1)-c1ccccc1C(=O)C2=O as the compound, how does the Lysis (Mus musculus [2]) read?
A: The Lysis was 94%.

Q: Which Lysis (Mus musculus [3]) does the source give for COc1ccc2c(c1)C(=O)c1ccsc1C2=O here?
A: Its Lysis is 9%.

Q: How did the Lysis (Mus musculus [4]) turn out when COc1cc(OC)c2c(c1)C(=O)c1sccc1C2=O was run?
A: Its Lysis is 19%.

Q: How did the Lysis (Mus musculus [1]) turn out when CC(C)c1cc2c(o1)-c1ccccc1C(=O)C2=O was run?
A: The Lysis was 94%.

Q: CC1(C)CCC2=C(O1)C(=O)c1ccccc1C2=O [ALPHA-LAPACHONE] was tested. Which Lysis (Mus musculus [1]) did it give?
A: The Lysis was 48%.

Q: With CN(C)c1ccc(C(=C2C=CC(=[N+](C)C)C=C2)c2ccc(N(C)C)cc2)cc1.[Cl-] [GENTIAN VIOLET] as the compound, how does the Lysis (Mus musculus [9]) read?
A: Its Lysis is 100%.

Q: How did the Lysis (Mus musculus [1]) turn out when CC(C)=CCC1=C(O)C(=O)c2ccccc2C1=O [LAPACHOL] was run?
A: Its Lysis is 65%.

Q: How did the Lysis (Mus musculus [1]) turn out when CC1(C)CCC2=C(O1)c1ccccc1C(=O)C2=O [LAPACHONE] was run?
A: Its Lysis is 76%.

Q: How did the Lysis (Mus musculus [10]) turn out when O=C1C=C(O)C(=O)c2ccccc21 [LAWSONE] was run?
A: Its Lysis is 76%.

Q: For O=C1c2ccccc2C(=O)c2sccc21 [THIOPHENONAPHTHOQUINONE], which Lysis (Mus musculus [11]) is on record?
A: Its Lysis is 13%.
